Columns and labels:
[1] = tested on: D1 murine mesenchymal stem cells (MSCs); test: MSC migration in collagen gels, time-lapse confocal cell tracking; conditions: MSCs treated with inhibitors of myosin-based contractility, day 6
Procedure: To determine how island architecture modulates stem cell behavior, DI MSC's were seeded in gels that were adherent to polydopamine covered glass (FIG. 37). Polydopamine allows for collagen to remain anchored to surfaces for imaging and prevents total compaction of the gel during experiments (Park et al., ACS Applied Materials & Interfaces 2019, 11, 23919-23925). MSC migration in gels were then visualized. To capture cell migration in these gels, a stable LifeAct-RFP dye was transduced into MSCs and then these encapsulated cells were imaged with time-lapse confocal fluorescence microscopy. Cell tracking analysis was performed to determine migration metrics (FIG. 22A). The cells both 1 day after seeding and 6 days after seeding were imaged for 12 hour timelapses. […] After 6 days of culture, differences in migratory behavior were observed between MSCs cultured in different island gels (FIG. 22B).
D1 MSCs or D1 MSC-LifeActRFP cells were mixed with the collagen solution prior to gelation to achieve a final cell concentration of 15000 cells/ml. Cells were cultured in 50%/50% mixture of the osteogenic induction medium and adipogenic induction medium (differentiation medium). The differentiation medium contained 50 μg/ml L-ascorbic acid (MilliporeSigma), 10 mM β-glycerophosphate (MilliporeSigma), and 0.1 μM dexamethasone (MilliporeSigma) in the DMEM growth medium.
MSC time lapses were performed in 12 well glass bottom dishes which had been polydopamine coated. 12 hour time lapses were taken on Day 1 and Day 6. Automatic cell segmentation was obtained using Imaris (Oxford Instruments). Manual filtering was done to determine which cells were to be used for downstream analysis. From these segmentations, cell movement was tracked and metrics such as mean speed, sphericity, and migration track length over the timelapse were obtained. Mean speed is defined as the average of instantaneous speeds between timepoints.

MDA-MB-231 cells [2] = test: Migration inhibition drug assay: MDA-MB-231 cell migration in 3D collagen; assay type: cell-based, human; conditions: thick collagen, day0 and day1; GM6001 20 μM, Y27632 30 μM, ML141 10 μM, SMIFH2 50 μM, NSC23766 100 μM
Procedure: (§1) To investigate the specific molecular mechanism behind the elevated migration of MDA-MB-231 cells in thick collagen, the following drugs were tested in these gels: pan-MMP inhibitor GM6001 (20 μM), potent selective Cdc42 inhibitor ML141 (10 μM), ROCK inhibitor Y27632 (30 μM), ARP2/3 inhibitor CK666 (50 μM), formin inhibitor SMIFH2 (50 μM) and Rac1 inhibitors NSC23766 (100 μM) and EHT1864 (20 μM). First cell morphology was traced and quantified. […] The graphic illustration of each morphological index can be found in FIG. 12B.
Apart from morphology signatures, cell migration was also tracked (FIG. 5A-C, FIG. 13A-B and FIG. 18A). […] GM6001-treated MDA-MB-231 cells in thick collagen migrated as actively as the DMSO control, both increased compared to cells in normal collagen. […] However, the interpretation of NSC23766 was confounded by the poor performance of another […]. NSC23766 binds directly to Rac1 and blocks the interaction between GEF Trio or Tiam (Gao et al., Proceedings Of The National Academy Of Sciences Of The United States Of America, 2004, 101, 7618-7623). EHT1864 binds to Rac1 but it is an allosteric inhibitor for guanine association. […] The differential preference between MDA-MB-231 cells for a stiff substrate and metastatic ovarian cancer cells (MOCC) for compliant substrate for migration (McGrail et al., Journal of Cell Science 2014, 127, 2621-2626); McGrail et al., Physical Biology 2015, 12, 026001) may be dictated by Rac1 and […], respectively.
(§2) Drugs were reconstituted and stored following manufacturers' recommendations and diluted in culture media to working concentrations. Specifically, 20 μM pan-MMPs inhibitor GM6001(Abcam, ab120845), 30 μM ROCK inhibitor Y27632 (Abcam, ab144494), 10 μM Cdc42 inhibitor ML141 (Calbiochem®217708), 50 μM formin inhibitor SMIFH2 (Abcam, ab218296), 50 μM ARP2/3 inhibitor CK666 (Abcam, ab141231), 100 μM Rac1 inhibitor NSC23766, 20 μM Rac1 inhibitor EHT1864 (Cayman 17258) were used. Fresh media mixed with specific drug were prepared right before experiment and replaced daily. In the drug assays, at least two independent experiments were performed with at least two replicates (technical duplicates) in each experiment.
Imaging was performed using a Leica SP8 confocal microscope. Time-lapse imaging (XYZT mode) was taken with a 20× objective (0.75 NA), with time interval set to 3 minutes or 6 minutes and z-step size set to 2 μm. Day0 time-lapse imaging was acquired between around 0hr to 12 hrs post embedding cells into gels. Day1 time-lapse imaging was acquired between around 24 hrs to 36 hrs post gel-embedment. Overview tilescan images were taken at day1, day2 or day5 respectively.
To track cell migration, XYZT data were first reduced in dimensions by conducting standard deviation projection along the z-axis. The XYT data were then processed by TrackMate in Fiji and produced cell trajectories. Trajectories were exported to MATLAB to calculate average speed and mean squared displacement. Average speed specifically refers to the mean of the absolute value of the net displacement of the cell center per hour. Mean squared displacements were computed with the following equation (Gorelik, Nature Protocols 2014, 9, 1931-1943): […]

MDA-MB-231 cells [3] = test: Morphology of MDA-MB-231 cells under drug treatment in normal versus thick collagen; assay type: cell-based, human; conditions: for cell shape and protrusions / cell morphology versus control: normal and thick collagen; for cell shape and protrusions / F-actin accumulation on the cell periphery: day2; for cell morphology versus control: Y27632 30 μM, CK666 50 μM, SMIFH2 50 μM; for effect on cell morphology: normal collagen
Procedure: as §1, §2
In this equation, N is the total step number, n is the n-th step, x,y are the x,y coordinates respectively. For morphology analysis, z projected tilescan images were segmented and analyzed by in-house MATLAB codes. Segmentation performance was validated, with wrong segmentation manually corrected or removed. For difficult automatic segmentation data such as the Y27632 treated condition, manually tracked data were supplemented. The definitions of elongation, compactness, sphericity and shape variance were described in FIG. 4B (Liu, Scientific Reports 2022, 12, 791). A custom ImageJ script was used to derive the colocalization of the YAP/TAZ signal in the nucleus and cytoplasm. Specifically, the central plane of each cell is first extracted. DAPI and YAP/TAZ channels are then used to produce masks for cell nucleus and cell body respectively. Nucleus YAP/TAZ is calculated by averaging YAP/TAZ intensity within the nucleus mask and cytoplasmic YAP/TAZ is calculated by averaging YAP/TAZ intensity outside the nucleus mask but within cell body. To note, only YAP/TAZ of focal plane is used for average calculation. For thick collagen bundle size measurement, “Analyze Particle” function from Fiji was used.

[4] = tested on: human pancreatic cancer cells PANC-1; conditions: aligned matrix fiber; cited from earlier work
OVCA429 = conditions: 2D conditions; cited from earlier work
SKOV3ip = conditions: 2D conditions; cited from earlier work
[5] = tested on: chronic lymphocytic leukemia cells; conditions: cited from earlier work
[6] = tested on: PDGF-induced lamellipodia formation; conditions: cited from earlier work

O=S(=O)(c1cccc2c(I)cccc12)N1CCCNCC1 [ML-7]
cell migration track length [1]: decreases in cell migration track length

C[C@@H](N)[C@H]1CC[C@H](C(=O)Nc2ccncc2)CC1 [Y27632]
MDA-MB-231 cell migration (MDA-MB-231 cells [2]): significantly reduced MDA-MB-231 cell migration
cell shape and protrusions (MDA-MB-231 cells [3]): extremely long cell protrusions
cell morphology versus control (MDA-MB-231 cells [3]; NSC23766 100 μM): distinct morphologies compared with control
cell migration track length [1]: decreases in cell migration track length

COc1ccc(C2CC(c3ccccc3)=NN2c2ccc(S(N)(=O)=O)cc2)cc1 (centres unmarked) [ML141]
MDA-MB-231 cell migration (MDA-MB-231 cells [2]): did not show significant inhibition
effect on cell morphology (MDA-MB-231 cells [3]): all cells are round
cell movement [4]: moved faster in aligned matrix fiber regardless of ML141 treatment
inhibition of migration (OVCA429): does inhibit
inhibition of migration (SKOV3ip): does inhibit

Cc1[nH]c2ccccc2c1CCNC(=O)c1ccccc1F [CK666]
cell shape and protrusions (MDA-MB-231 cells [3]): elongated and stretched
cell morphology versus control (MDA-MB-231 cells [3]; NSC23766 100 μM): distinct morphologies compared with control

O=C1NC(=S)N(c2cccc(Br)c2)C(=O)/C1=C/c1ccco1 [SMIFH2]
MDA-MB-231 cell migration (MDA-MB-231 cells [2]): significantly reduced MDA-MB-231 cell migration
F-actin accumulation on the cell periphery (MDA-MB-231 cells [3]): lacked F-actin accumulation on the cell periphery
cell shape and protrusions (MDA-MB-231 cells [3]): round and lacked cell peripheral fluctuations
cell morphology versus control (MDA-MB-231 cells [3]; NSC23766 100 μM): distinct morphologies compared with control
effect on cell morphology (MDA-MB-231 cells [3]): all cells are round

CCN(CC)CCCC(C)Nc1nc(C)cc(Nc2ccc3nc(C)cc(N)c3c2)n1 (centres unmarked) [NSC23766]
MDA-MB-231 cell migration (MDA-MB-231 cells [2]): significantly reduced MDA-MB-231 cell migration
cell size (MDA-MB-231 cells [3]; NSC23766 100 μM): smaller than most other drug conditions
F-actin accumulation on the cell periphery (MDA-MB-231 cells [3]): clearly visible
cell morphology versus control (MDA-MB-231 cells [3]; NSC23766 100 μM): distinct morphologies compared with control
effect on cell morphology (MDA-MB-231 cells [3]): all cells are round
cell migration track length [1]: decreases in cell migration track length
cell movement [4]: inhibited cell movement, regardless of collagen fiber orientation
proliferation [5]: proliferation arrest

CNC(=O)[C@H](Cc1c[nH]c2ccccc12)NC(=O)[C@@H](CC(=O)NO)CC(C)C [GM6001]
MDA-MB-231 cell migration (MDA-MB-231 cells [2]): failed to inhibit MDA-MB-231 cell migration
effect on cell morphology (MDA-MB-231 cells [3]): all cells are round

O=c1cc(CN2CCOCC2)occ1OCCCCCSc1ccnc2cc(C(F)(F)F)ccc12 [EHT1864]
effect on cell morphology (MDA-MB-231 cells [3]): all cells are round
PDGF-induced lamellipodia formation [6]: can inhibit PDGF-induced lamellipodia formation

Source: US20240166723A1, “MECHANOCHEMICAL GENERATION OF NOVEL COLLAGEN GEL ARCHITECTURES AND SCAFFOLDS” (Yale University, priority 2022, published 2024)
